The values below are quoted from earlier work in patent publication US20240041861A1, “COMPOSITIONS AND METHODS FOR TREATMENT AND PROPHYLAXIS OF VIRAL INFECTIONS” (priority 2020, published 2024).

Converted amounts (≈) assume the structure as drawn. Like-named read-outs stand apart in the source and are kept apart here.

In data set [1] the test system is NS3/4A HCV protease GT1b.
Data set [2] has as its system replicon GT1b.
Data set [3] has as its target PDE5 (Homo sapiens, UniProt O76074).
The conditions of data set [4]: in vivo.
Experiment in data set [5]: not given
This is another data set of the same source.

The conditions of data set [6]: human, in vivo.
Experiment in data set [7]: not given
This is another data set of the same source.

For data set [8] the following is noted: in vivo. This is another data set of the same source.

As for `CC(C)(C)OC(=O)N[C@H]1CCCCC/C=C\[C@@H]2C[C@@]2(C(=O)NS(=O)(=O)C2CC2)NC(=O)[C@@H]2C[C@@H](OC(=O)N3Cc4cccc(F)c4C3)CN2C1=O` [Danoprevir], the 50% inhibitory concentration (IC50) in data set [1] is 0.2 to 0.4 nM. Moreover, the EC50 in [2] was 1.6 nM.

For the molecule `CCCc1nn(C)c2c(=O)[nH]c(-c3cc(S(=O)(=O)N4CCNCC4)ccc3OCC)nc12` [N-desmethyl metabolite], the “bound to plasma proteins” value was “approximately 96%”. In data set [3], the “in vitro potency for PDE5 relative to the parent drug” value is given as “approximately 50%”. Also, the terminal half lives result in [4] was “about 4 hours”.

Take `CC(C)Nc1cccnc1N1CCN(C(=O)c2cc3cc(NS(C)(=O)=O)ccc3[nH]2)CC1` [delavirdine free base]: the results for the solubility in data set [5] (pH 1), in data set [5] (pH 2) and in data set [5] (pH 7.4) were 2940 µg/mL (≈ 6440 µM), 295 µg/mL (≈ 646 µM) and 0.81 µg/mL (≈ 1.77 µM), respectively.

`CC(C)c1nc(CN(C)C(=O)N[C@H](C(=O)N[C@@H](Cc2ccccc2)C[C@H](O)[C@H](Cc2ccccc2)NC(=O)OCc2cncs2)C(C)C)cs1` [ritonavir]: the “plasma levels relative to those obtained after the ritonavir dose of 600 mg twice daily” value in data set [6] is reported as “less than 7%”.

As to `CCN(CCO)CCCC(C)Nc1ccnc2cc(Cl)ccc12` (centres unmarked) [hydroxychloroquine], in [7] (in vivo), the half-life result was “about 40 days” and the “mean fraction of the dose absorbed” value is 0.74. Besides, the “dose excreted as the parent drug in urine” value in data set [7] (in vivo, po) is reported as “approximately 10%”. Further, the half-life in data set [7] (in vivo, po, 200 mg) was 22.4 days. In addition, the “mean peak blood concentration” value in [7] (single 200 mg oral dose of PLAQUENIL, healthy males, blood) is given as 129.6 ng/mL. Moreover, in [7] (single 200 mg oral dose, healthy males, plasma), the half-life is 123.5 days. Also, in [8], the “fraction of the dose absorbed” value was 30-100% and the “renal clearance of unchanged drug” value is listed as 16-30%. Besides, in data set [8] (po), the absorption half-life is 0.12 to 0.17 days, the terminal half-life was 40 to 50 days and the “time of peak plasma levels” value was 3 to 4 h.

Consider `CCCc1nn(C)c2c(=O)[nH]c(-c3cc(S(=O)(=O)N4CCN(C)CC4)ccc3OCC)nc12` [sildenafil], for which the “bound to plasma proteins” value is “approximately 96%”. In data set [4], the “mean steady state volume of distribution (Vss)” value is recorded as 105 L and the terminal half lives result is “about 4 hours”.

In general, IC50 refers to the point on the concentration scale where inhibition reaches its midpoint. In general, EC50 refers to the concentration giving half of the maximal effect. By solubility is commonly meant the concentration that dissolves in the medium under given conditions. By half-life is commonly meant how long it takes for the measured level to halve.
